From ChEMBL document CHEMBL5550176, “Destruxin E backbone modification effects on osteoclast Morphology: Synthesis and SAR study of N-Desmethyl and N-Methyl analogs” (2024)
Numbered stars: 1 amine (or outer) side, 2 acyl side, 3 side chain; on linkers, the order of the positions; unused ones are H or OH. Square brackets hold non-standard residues; d marks the D form. Peptide text beside a SMILES is read from it. X1 = O=C([C@@H](C[C@H]1CO1)O[*:1])[*:2]; NMeI = CC[C@H](C)[C@H](NC)C(=O)O; NMeβAla = CN(CCC(=O)[*:2])[*:1]; NMeV = CN[C@H](C(=O)O)C(C)C; NMeA = CN[C@@H](C)C(=O)O; βAla = NCCC(=O)O

System: Osteoclast
Assay: Induction of morphological changes in mouse Osteoclast cells incubated for 24 hrs by TRAP staining based fluorescence microscopy analysis
Type: functional

Row | SMILES | Activity [µM]
1 | CC[C@H](C)[C@@H]1NC(=O)[C@@H]2CCCN2C(=O)[C@@H](C[C@H]2CO2)OC(=O)CCN(C)C(=O)[C@H](C)N(C)C(=O)[C@H](C(C)C)N(C)C1=O (cyclo(I[NMeV][NMeA][NMeβAla][X1]P)) | 50
2 | CC[C@H](C)[C@@H]1NC(=O)[C@@H]2CCCN2C(=O)[C@@H](C[C@H]2CO2)OC(=O)CCNC(=O)[C@H](C)N(C)C(=O)[C@H](C(C)C)NC1=O (cyclo(IV[NMeA][βAla][X1]P)) | 1.6
3 | CC[C@H](C)[C@@H]1NC(=O)[C@@H]2CCCN2C(=O)[C@@H](C[C@H]2CO2)OC(=O)CCNC(=O)[C@H](C)NC(=O)[C@H](C(C)C)N(C)C1=O (cyclo(A[βAla][X1]PI[NMeV])) | >50
4 | CC[C@H](C)[C@H]1C(=O)N(C)[C@@H](C(C)C)C(=O)N(C)[C@@H](C)C(=O)NCCC(=O)O[C@H](C[C@H]2CO2)C(=O)N2CCC[C@H]2C(=O)N1C (cyclo([NMeA][βAla][X1]P[NMeI][NMeV])) | 12.5
